From the PolyMetriX glass transition set
± gives the standard deviation of the reports.

glass transition temperature [°C]	Structure (SMILES)
50.90	*CC(OC(=O)C(CC(C)C)NC(=O)OCc1ccccc1)C(COC(=O)O*)OC(=O)C(CC(C)C)NC(=O)OCc1ccccc1 (repeat unit)
282.00	*c1ccc(Oc2ccc(C(=O)c3ccc(Oc4ccc(-c5c6c(c(*)c7ccccc57)C(=O)N(c5ccccc5F)C6=O)cc4)cc3)cc2)cc1 (repeat unit)
241.00	*c1ccc(Oc2ccc(C(c3ccc(Oc4ccc(-c5nc(*)nc(-c6ccccc6)n5)cc4)cc3)(C(F)(F)F)C(F)(F)F)cc2)cc1 (repeat unit)
60.00	*CC1CCC(COC(C)OC(=O)c2ccc(C(=O)OC(C)O*)c3ccccc23)CC1 (repeat unit)
-17.00	*CC(*)C(=O)OCC(F)(F)C(F)(F)C(F)(F)C(F)(F)C(F)(F)C(F)(F)C(F)(F)F (repeat unit)
145.00	*/C=C/c1c(OC(=O)c2ccc(C(=O)Oc3ccc4ccccc4c3/C=C/c3cccc(*)n3)cc2)ccc2ccccc12 (repeat unit)
180.00	*Oc1ccc(NC(=O)CCCCCCC(=O)Nc2ccc(*)cc2)cc1 (repeat unit)
104.60	*NNC(=O)/C=C/C(=O)Nc1cccc(/C=C2\CC/C(=C\c3cccc(NC(=O)/C=C/C(*)=O)c3)C2=O)c1 (repeat unit)
98.00	*c1ccc(C(=O)OCCCCCCCCOc2ccc(/C=C3\CCCC/C(=C\c4ccc(OCCCCCCCCOC(=O)c5ccc(-c6nnc(*)o6)cc5)cc4)C3=O)cc2)cc1 (repeat unit)
-90.00	*O[Si](C)(C)O[Si](C)(C)O[Si](C)(C)OC(C)CCC(*)C (repeat unit)
145.00	*CC(O)COc1ccc(S(=O)(=O)c2ccc(OCC(O)COc3c(C)cc(S(=O)(=O)c4cc(C)c(O*)c(C)c4)cc3C)cc2)cc1 (repeat unit)
148.00	*Oc1ccc(OC(=O)c2ccc(C(*)=O)cc2Sc2ccc3ccccc3c2)cc1 (repeat unit)
70.00	*CC(O)COC(=O)C1CCC(C(=O)OCC(O)COc2ccc(C(C)(C)c3ccc(O*)cc3)cc2)CC1 (repeat unit)
322.00	*c1ccc2c(c1)C(=O)N(c1ccc(Oc3ccc(N4C(=O)c5ccc(-c6c(-c7ccccc7)c(-c7ccccc7)c(-c7ccc(Sc8ccc(-c9c(-c%10ccccc%10)c(-c%10ccccc%10)c(*)c(-c%10ccccc%10)c9-c9ccccc9)cc8)cc7)c(-c7ccccc7)c6-c6ccccc6)cc5C4=O)cc3)cc1)C2=O (repeat unit)
178.00	*/C=C(\C#N)c1cccc(/C(C#N)=C/c2ccc(/C=C/c3ccc(N(CC)Cc4ccccc4CN(CC)c4ccc(/C=C/c5ccc(*)s5)cc4)cc3)s2)c1 (repeat unit)
27.00	*CCC(=O)NCCCCCCNC(=O)CCS* (repeat unit)
204.00	*C(=O)Oc1ccc(C2(c3ccc(OC(=O)c4ccc5c(c4)C(=O)N(c4ccc(-c6ccc(N7C(=O)c8ccc(*)cc8C7=O)cc6C)c(C)c4)C5=O)cc3)CCCCCCCCCCC2)cc1 (repeat unit)
305.00	*c1ccc(Oc2ccc(-c3cc(-c4ccccc4)c4cc(-c5ccc6nc(*)cc(-c7ccccc7)c6c5)ccc4n3)cc2)cc1 (repeat unit)
175.00	*Sc1ccc(C(=O)c2ccc(C(c3ccc(C(=O)c4ccc(*)cc4)cc3)(C(F)(F)F)C(F)(F)F)cc2)cc1 (repeat unit)
-22.00	*CCCCCCCCCCCCCCCCOC(=O)C/C=C/CC(=O)O* (repeat unit)
331.00	*c1ccc2c(c1)C(=O)N(c1ccc(S(=O)(=O)c3ccc(S(=O)(=O)c4ccc(N5C(=O)c6ccc(C(*)(C(F)(F)F)C(F)(F)F)cc6C5=O)cc4)cc3)cc1)C2=O (repeat unit)
232.00	*c1ccc(Oc2c(C)cc(C(C)(C)c3cc(C)c(Oc4ccc(N5C(=O)c6ccc(Oc7ccc(C8(c9ccc(Oc%10ccc%11c(c%10)C(=O)N(*)C%11=O)cc9)CCC(c9ccccc9)CC8)cc7)cc6C5=O)cc4)c(C)c3)cc2C)cc1 (repeat unit)
263.00	*c1ccc(Oc2cc(C(C)(C)C)c(Oc3ccc(N4C(=O)c5ccc(S(=O)(=O)c6ccc7c(c6)C(=O)N(*)C7=O)cc5C4=O)cc3)cc2C(C)(C)C)cc1 (repeat unit)
53.00	*CCCCCCOc1ccc(OC(=O)c2ccc(C(=O)Oc3ccc(O*)cc3)cc2)cc1 (repeat unit)
277.00	*C1C(*)C2CC1C(C(=O)OCc1ccccc1)C2C(=O)OCc1ccccc1 (repeat unit)
50.00	*CNC(=O)OCCOC(=O)NCc1ccc(C(C)(C)c2ccc(*)o2)o1 (repeat unit)

glass transition temperature [°C]	Structure (SMILES)
43.00	*CC(*)(C)C(=O)OCCN(C)c1ccc(N(C)C)cc1 (repeat unit)
50.00	*CCCCCCCCNC(=O)CCCCCCCCCCC(=O)N* (repeat unit)
398.50	*c1ccc(-c2cc(C(C)(C)C)c(Oc3ccc(-n4c(=O)c5cc6c(=O)n(*)c(=O)c6cc5c4=O)cc3)c(C(C)(C)C)c2)cc1 (repeat unit)
358.00	*C(=O)Nc1ccc(-c2ccc(NC(=O)c3ccc4c(c3)C(=O)N(c3ccc(Oc5ccc(N6C(=O)c7ccc(*)cc7C6=O)cc5-c5ccccc5)c(-c5ccccc5)c3)C4=O)cc2)cc1 (repeat unit)
31.00	*CCCCOCC(O)CN(CC(O)CO*)c1ccc(N(C)C)cc1 (repeat unit)
290.00	*c1ccc(Oc2ccc(-c3nc4cc(S(=O)(=O)c5ccc6nc(-c7ccccc7)c(*)nc6c5)ccc4nc3-c3ccccc3)cc2)cc1 (repeat unit)
-1.00	*c1ccc(-c2cc(CCCCCCCC)c(-c3ccc(-c4ccc(-c5sc(-c6ccc([Si](*)(CCCC)CCCC)s6)cc5CCCCCCCC)s4)s3)s2)s1 (repeat unit)
130.00	*CC(*)(C)C(=O)OCC1COC(c2ccccc2)O1 (repeat unit)
84.00	*Oc1ccc(Sc2ccc(Sc3ccc(Sc4ccc(*)cc4)cc3)cc2)cc1 (repeat unit)
278.00	*c1cc(C)c(Cc2cc(C)c(N3C(=O)c4ccc(Oc5ccc(Oc6ccc7c(c6)C(=O)N(*)C7=O)cc5)cc4C3=O)cc2C)cc1C (repeat unit)
178.00	*Nc1cc(NC(=O)c2ccc(C(*)=O)cc2)cc(C(=O)Oc2ccc(-c3ccccc3)cc2)c1 (repeat unit)
247.00	*c1c(C)cc(Cc2cc(C)c(N3C(=O)c4ccc(Oc5ccc(C(C)(C)c6ccc(Oc7ccc8c(c7)C(=O)N(*)C8=O)cc6)cc5)cc4C3=O)c(C)c2)cc1C (repeat unit)
4.20	*[O][Zn][O]C(=O)c1ccccc1C(=O)OCCCCCOC(=O)Nc1cc(NC(=O)OCCCCCOC(=O)c2ccccc2C(*)=O)ccc1C (repeat unit)
204.50	*Nc1ccc(NC(=O)c2ccc(NC(=O)CCCCCCCCCCCCC(=O)Nc3ccc(C(*)=O)cc3)cc2)cc1C(=O)OCCCCCCCCCCCCCC (repeat unit)
158.50	*c1ccc(Oc2ccc(-c3ccc(Oc4ccc(N5C(=O)CC(=O)N(*)C5=S)cc4)cc3)cc2)cc1 (repeat unit)
161.00	*c1ccc2c(c1)C(=O)N(c1cc(OCCCCCCCCCCCCCCCC)cc(N3C(=O)c4ccc(C(*)(C(F)(F)F)C(F)(F)F)cc4C3=O)c1)C2=O (repeat unit)
420.00	*c1ccc(-c2cc(C(C)(C)C)c(Oc3ccc(-n4c(=O)c5cc6c(=O)n(*)c(=O)c6cc5c4=O)cc3C(F)(F)F)c(C(C)(C)C)c2)cc1 (repeat unit)
43.00	*Oc1ccc(CC(NC(=O)CCc2ccc(OC(=O)CCCC(*)=O)cc2)C(=O)OCCCCCC)cc1 (repeat unit)
254.00	*C(=O)Nc1ccc(Oc2ccc(C(c3ccc(Oc4ccc(NC(=O)c5ccc6c(c5)C(=O)N(c5ccc(Oc7ccc(C8(c9ccc(Oc%10ccc(N%11C(=O)c%12ccc(*)cc%12C%11=O)cc%10)cc9)CC9CC8C8CCCC98)cc7)cc5)C6=O)cc4)cc3)(C(F)(F)F)C(F)(F)F)cc2)cc1 (repeat unit)
94.00	*Oc1c(F)c(F)c(COC(c2cccc(C(OCc3c(F)c(F)c(Oc4ccc(Cc5ccc(*)cc5)cc4)c(F)c3F)(C(F)(F)F)C(F)(F)F)c2)(C(F)(F)F)C(F)(F)F)c(F)c1F (repeat unit)
49.00	*CC(*)(C)C(=O)OCCCCCCOc1ccc(C(=O)Oc2ccc(OC)cc2)cc1OC (repeat unit)
219.00	*c1cc(C(=O)OCCCCC)cc(N2C(=O)CC(C3Cc4ccccc4C4C(=O)N(*)C(=O)C43)C2=O)c1 (repeat unit)
20.70	*O[Si](*)(C)CCCCCCCCCCC(=O)Oc1ccc(C(=O)Oc2ccc(OC(=O)CCCCC(=O)OC3CC(C)CCC3C(C)C)cc2)cc1 (repeat unit)
302.00	*c1ccc(Oc2ccc3ccccc3c2-c2c(Oc3ccc(N4C(=O)c5ccc(NC(=O)Nc6ccc(-c7cc(-c8ccc(-c9ccccc9)cc8)cc(-c8ccc(NC(=O)Nc9ccc%10c(c9)C(=O)N(*)C%10=O)cc8)n7)cc6)cc5C4=O)cc3)ccc3ccccc23)cc1 (repeat unit)
272.00	*c1ccc(NC(=O)Nc2ccc(NC(=O)Nc3ccc(-c4nc(-c5ccc(-c6nc(-c7ccc([N+](=O)[O-])cc7)c(-c7ccc([N+](=O)[O-])cc7)[nH]6)cc5)[nH]c4*)cc3)cc2)cc1 (repeat unit)

Structure (SMILES)	glass transition temperature [°C]
*CC(*)C(N)=O (repeat unit) [Poly(acrylamide)]	178.92 ± 20
*CCC(C)CCC(=O)S* (repeat unit)	-50.00
*CC(*)[Si](C)(C)C (repeat unit)	137.00
*c1[nH]c(*)c(OC)c1OC (repeat unit)	-26.00
*CCCC(*)(C)C (repeat unit)	-20.00
*CC(*)c1ccccc1C (repeat unit)	131.00
*CC(*)C(=O)OC (repeat unit) [Poly(methyl acrylate) ]	9 ± 2
*O[Si](C)(C)CC[Si](*)(C)O[Si](C)(C)C (repeat unit)	-89.00
